# Measurements as given in patent publication US20160333073A1, “DRUG DELIVERY SYSTEM” (UCL BUSINESS PLC, priority 2014, published 2016).
# Like-named read-outs stand apart in the source and are kept apart here. Square brackets hold non-standard residues; d marks the D form. Peptide text beside a SMILES is read from it. * marks the point of attachment. FITC = O=C1OC2(c3ccc(O)cc3Oc3cc(O)ccc32)c2ccc(NC(=S)*)cc21
# What was measured:
# [1] = Degradation by proteases in rabbit vitreous (mass spectrometry / UPLC-MS)
# Description: FIG. 10. […] UPLC-MS=ultra performance liquid chromatography-mass spectrometry.
# FIG. 11. The effect of the protease inhibitors aprotinin (8 μM), bestatin (500 μM), E-64 (150 μM), and leupeptin (200 μM) on HABP35-F detection by UPLC-MS, after 6 hours incubation in rabbit vitreous. […] The experiment was performed three times (n=3). UPLC-MS=ultra performance liquid chromatography-mass spectrometry.
# In order to assess degradation of HABP35-F by proteases present in rabbit vitreous, HABP35-F was incubated in rabbit vitreous for a period of 12 hours. Samples of HABP35-F in rabbit vitreous were taken at 0 and 12 hours and the mass spectrum traces for HABP35-F were compared.
# In order to confirm that fragmentation occurred at the N-terminus (as opposed to the C-terminus), HABP35-B was incubated for 12 hours with rabbit vitreous.
# In order to further confirm that HABP35-F was being enzymatically digested at the N-terminus, the proportion of HABP35-F that could be detected following incubation was assessed, with or without bestatin. Bestatin is an aminopeptidase inhibitor. Aminopeptidases catalyse the cleavage of amino acids from the N-terminus of peptides/proteins.
# In order to optimise detection, further other protease inhibitors were added (aprotinin, bestatin, E-64, leupeptin).
# [2] = HA binder screening ELISA on non-covalently bound HA; format: binding; conditions: for specific binding to non-covalently bound HA (A450 HA wells minus blank wells): n=3, compared with RP-B
# Description: FIG. 7. […] Three ELISAs were performed for each concentration (n=3). Error bars represent standard deviation.
# FIG. 8. […] Specific binding was obtained by subtracting A450 of blank wells from A450 of HA loaded wells, from the readings represented in FIG. 7. Three ELISAs were performed for each concentration (n=3). […] Error bars represent standard deviation.
# Wells of a clear polystyrene Amine Surface 96 well ELISA plates (Corning Life Sciences Ltd) were loaded with 100 μl of 1 mg/ml HA sodium salt (Sigma-Aldrich Ltd) in 0.1 M 2-[N-morpholino] ethane sulfonic acid (MES, pH 4.5-5, Sigma-Aldrich Ltd). The wells were incubated for three hours at room temperature on an orbital shaker. All further incubations occurred at room temperature on an orbital shaker.
# Wells were then washed three times with wash buffer (0.05% Tween 20 (Sigma-Aldrich Ltd) in phosphate buffered saline (PBS), pH 7.2-7.4). PBS was prepared to the following formula: 137 mM sodium chloride, 2.7 mM potassium chloride, 8.1 mM sodium phosphate dibasic, 1.5 mM potassium phosphate monobasic, pH 7.2-7.4, 0.22 μm filtered. 300 μl of 3% BSA (Sigma-Aldrich Ltd) in PBS was used to block each well. After 90 minutes incubation the wells were washed again three times. Different concentrations of biotinylated HA binding peptides, or control peptides, were then added, dissolved in 100 μl of 3% BSA PBS, and incubated for 1 hour. Three further washes were performed. 100 μl of streptavidin-horse radish peroxidase (S-HRP) (R&D Systems Ltd) (diluted to a working concentration of 1:200 in PBS) was added to each well, to detect any bound biotinylated peptide. The wells were incubated for 20 minutes, protected from light, followed by three further washes. 100 μl of tetramethylbenzidine (TMB)/H2O2, was added to each well. The wells were incubated for 10 minutes, protected from light. The reaction was stopped with 50 μl of 1 M H2SO4. Optical density of each well was read immediately, using a Modulus Microplate Reader set to 450 nm, One-way analysis of variance (ANOVA) was used to deter line statistical significance between groups (GraphPad Prism 5, GraphPad software Ltd).
# [3] = format: binding, rabbit
# Description: The affinity of the peptide may be defined in terms of its binding affinity to hyaluronic acid and/or collagen, and assessed by way of its diffusion from one chamber of a micro-equilibrium dialyser containing vitreous matter (e.g. hyaluronic acid) to another chamber containing vitreous matter in the absence of such a binding peptide. Thus, the concentration of peptide remaining in the initial chamber over time provides a quantitative parameter for assessing the amount of peptide remaining in the vitreous, this parameter being innately governed by peptide binding properties to hyaluronic acid. A comparison with the binding properties of the peptide of SEQ ID No. 1 allows the relative affinity to the determined (for example, see FIG. 3).
# FIG. 1. Harvard Fast Micro-Equilibrium Dialyzer. Each dialyzer is made of polytetrafluoroethylene (PTFE) and contains a 250 μl chamber on either side of a 100 kDa molecular weight cut off (MWCO) cellulose acetate membrane. The chambers were incubated at room temperature for up to 8 hours, and the diffusion from one chamber to the other was assessed. […]
# In order to study the diffusion properties of HABP35-F in vitreous, Fast Micro-Equilibrium Dialyzers (250 μl chamber volume) were purchased from Harvard Apparatus Ltd (UK). […] The rate at which HABP35-F and RP2-F diffused from one side of the dialyzer to the other was assessed over time. […]
# [4] = format: binding
# Description: FIG. 1. Harvard Fast Micro-Equilibrium Dialyzer. Each dialyzer is made of polytetrafluoroethylene (PTFE) and contains a 250 μl chamber on either side of a 100 kDa molecular weight cut off (MWCO) cellulose acetate membrane. The chambers were incubated at room temperature for up to 8 hours, and the diffusion from one chamber to the other was assessed. The side in which the peptide is placed is termed the donating chamber. The other side, towards which the peptide diffuses, is termed the receiving chamber.
# FIG. 4. The diffusion of HABP35-F (left-hand column in each case) and RP2-F (right-hand column in each case) in hyaluronic acid, using a Harvard Fast Micro-Equilibrium Dialyzer. […] Concentration of HABP35-F or RP2-F, in the donating and receiving chambers, was measured at the 8-hour time point (n=3). The concentration gradient was then determined (difference between the concentration of the donating and receiving chambers). […]
# In order to assess whether the retention in the donating chamber was due to an interaction with hyaluronic acid (HA), a solution of 2.5 mg/ml HA (in HEPES buffered saline) was added to each chamber, instead of rabbit vitreous. 20 nmole/ml of HABP35-F or RP2-F was added to the donating chamber and diffusion was measured over 8 hours. […] As a control, diffusion in HEPES buffered saline (HBS) alone was also assessed. […]
# [5] = set-up: species or system Sprague Dawley rats; conditions: rat, in vivo
# Description: FIG. 5. The retention of HABP35-F and RP2-F in rat vitreous after 48 hours. 2.5 μl of HABP35-F or RP2-F (250 nmole/ml) was injected into the vitreous of adult male Sprague Dawley rats. After 48 hours the eyes were removed. The cornea and lens was removed and the eye cup opened out into a Maltese cross. The vitreous and retina was photographed using an epifluorescent microscope (using equal exposure settings). A) Fluorescence of HABP35-F in the vitreous 48 hours following injection. B) Fluorescence of RP-F in the vitreous 48 hours following injection. C) Collage photograph showing fluorescence of HABP35-F in the vitreous 48 hours following injection.
# FIG. 6. The in vivo diffusion study of HABP35-FP (higher line) and RP2-F (lower line) in rat vitreous over time. […] At different time points (0, 8, 24, 72, 168 hours) rats were sacrificed and the concentration of peptide in the vitreous was measured by fluorescence. […]
# HABP-35-F was modified to protect the N-terminus from enzymatic degradation, through conversion of the terminal leucine to its D-configuration and by acetylation. […] The vitreous was extracted and peptide concentration measured by assessing fluorescence of the extracted vitreous. Three eyes were assessed, for each peptide, at each time point. In addition, the fluorescence of the vitreous was directly assessed on eye-cup flat mounts using an epifluorescent microscope.
compound,measurement,setting,value
LKQKIKHVVKLKVVVKLRSQLVKRKQN-GGGS-K(Biotin)-amide [HABP35-B],degradation in rabbit vitreous (mass spectrum),"[1]; incubation in rabbit vitreous, 12 hours vs 0 hours","a new ion also appeared, containing a comparable loss in MW to that seen with HABP35-F"
same,non-specific binding (blocked wells without HA),[2],high non-specific binding
same,specific binding to non-covalently bound HA (A450 HA wells minus blank wells),[2],specific signal deteriorated at higher concentrations
same,concentrations showing specific binding relative to HABP42-B or Pep1-B,[2]; non-covalently bound HA,ten-fold less
"SATPASAPYPLAGGGSSATPASAPYPLAGGGS-K(FITC)-amide [RP2-F, reference compound]",peptide concentration in / retention in the donating chamber,"[3]; rabbit vitreous, 20 nmole/ml peptide in donating chamber, 100 kDa MWCO membrane, 2, 4, 6 and 8 hours, fluorescence",almost reaching equilibrium
same,concentration gradient (concentration in donating chamber - concentration in receiving chamber),"[3]; rabbit vitreous, 2, 4, 6 and 8 hours",almost reached zero
CC[C@H](C)[C@H](NC(=O)[C@H](CCCCN)NC(=O)[C@H](CCC(N)=O)NC(=O)[C@H](CCCCN)NC(=O)[C@@H](N)CC(C)C)C(=O)N[C@@H](CCCCN)C(=O)N[C@@H](Cc1c[nH]cn1)C(=O)N[C@H](C(=O)N[C@H](C(=O)N[C@@H](CCCCN)C(=O)N[C@@H](CC(C)C)C(=O)N[C@@H](CCCCN)C(=O)N[C@H](C(=O)N[C@H](C(=O)N[C@H](C(=O)N[C@@H](CCCCN)C(=O)N[C@@H](CC(C)C)C(=O)N[C@@H](CCCNC(=N)N)C(=O)N[C@@H](CO)C(=O)N[C@@H](CCC(N)=O)C(=O)N[C@@H](CC(C)C)C(=O)N[C@H](C(=O)N[C@@H](CCCCN)C(=O)N[C@@H](CCCNC(=N)N)C(=O)N[C@@H](CCCCN)C(=O)N[C@@H](CCC(N)=O)C(=O)N[C@@H](CC(N)=O)C(=O)NCC(=O)NCC(=O)NCC(=O)N[C@@H](CO)C(=O)N[C@@H](CCCCNC(=S)Nc1ccc2c(c1)C(=O)OC21c2ccc(O)cc2Oc2cc(O)ccc21)C(N)=O)C(C)C)C(C)C)C(C)C)C(C)C)C(C)C)C(C)C [HABP35-F] (H-LKQKIKHVVKLKVVVKLRSQLVKRKQNGGGSK(FITC)-NH2),total amount of peptide in both chambers (degradation) during diffusion study,[4],minimal degradation
same,degradation in rabbit vitreous (mass spectrum),[1],this new molecule was HABP35-F minus the N-terminal leucine
same,fluorescence of peptide in the vitreous (epifluorescent microscopy),[5],visibly more fluorescent peptide
"GAHWQFNALTVR-GGGS-K(Biotin)-amide [Pep1-B, reference compound]",specific binding to non-covalently bound HA (A450 HA wells minus blank wells),[2],significantly greater specific binding at all concentrations tested
CC[C@H](C)[C@H](NC(=O)[C@H](CCCCN)NC(=O)[C@H](CCC(N)=O)NC(=O)[C@H](CCCCN)NC(=O)[C@@H](CC(C)C)NC(C)=O)C(=O)N[C@@H](CCCCN)C(=O)N[C@@H](Cc1c[nH]cn1)C(=O)N[C@H](C(=O)N[C@H](C(=O)N[C@@H](CCCCN)C(=O)N[C@@H](CC(C)C)C(=O)N[C@@H](CCCCN)C(=O)N[C@H](C(=O)N[C@H](C(=O)N[C@H](C(=O)N[C@@H](CCCCN)C(=O)N[C@@H](CC(C)C)C(=O)N[C@@H](CCCNC(=N)N)C(=O)N[C@@H](CO)C(=O)N[C@@H](CCC(N)=O)C(=O)N[C@@H](CC(C)C)C(=O)N[C@H](C(=O)N[C@@H](CCCCN)C(=O)N[C@@H](CCCNC(=N)N)C(=O)N[C@@H](CCCCN)C(=O)N[C@@H](CCC(N)=O)C(=O)N[C@@H](CC(N)=O)C(=O)NCC(=O)NCC(=O)NCC(=O)N[C@@H](CO)C(=O)N[C@@H](CCCCNC(=S)Nc1ccc2c(c1)C(=O)OC21c2ccc(O)cc2Oc2cc(O)ccc21)C(N)=O)C(C)C)C(C)C)C(C)C)C(C)C)C(C)C)C(C)C [HABP35-FP] (Ac-[dL]KQKIKHVVKLKVVVKLRSQLVKRKQNGGGSK(FITC)-NH2),fluorescence of peptide in the vitreous (epifluorescent microscopy),[5],increased retention
"CC(C)C[C@H](NC(=O)[C@@H](O)[C@H](N)Cc1ccccc1)C(=O)O [Bestatin, reference compound]",amount of HABP35-F detectable by UPLC-MS,"[1]; HABP35-F 10 nmole/ml, 6 hours incubation in rabbit vitreous, bestatin 250 μM",significantly increased
